{"source": "patent US4368267A", "about": "“Epoxidation of lower α-olefins” (priority 1980, dated 1983)", "key": {"[1]": {"tested_on": "P(40), P(80), S(80) cell fractions of Methylosinus sp. (CRL-15, NRRL B-11,202)", "assay": "Oxidation of n-alkanes and n-alkenes by cell fractions", "assay_type": "biochemical", "settings": "for % Inhibition, Propylene-Epoxidizing Activity / % Inhibition, Methane-Hydroxylating Activity / Methane-Oxidizing Activity in presence of metal / Propylene-Oxidizing Activity in presence of metal: P(40) fraction; for % Inhibition, Propylene-Epoxidizing Activity / % Inhibition, Methane-Hydroxylating Activity: inhibitor 10^-3 M; for % Inhibition, Propylene-Epoxidizing Activity: uninhibited rate 4.1; for % Inhibition, Methane-Hydroxylating Activity: uninhibited rate 4.5; for Rate of Product Formation (substrate to 1,2-epoxide or alcohol): P(40) particulate fraction, 30° C.; for Methane-Oxidizing Activity in presence of metal / Propylene-Oxidizing Activity in presence of metal: metal 10^-3 M; for Methane-Oxidizing Activity in presence of metal: control 4.0; for Propylene-Oxidizing Activity in presence of metal: control […]", "description": "Cells were washed twice with 25 mM potassium phosphate buffer, pH 7.0 containing 5 mM MgCl2. Cells were suspended in the same buffer. The cell suspensions at 4° C. were disintegrated by a single passage through a French Pressure cell (15,000 lb./in.^2) and centrifuged at 5000×g. for 15 min. to remove unbroken bacteria. The supernatant solution (crude extract) was then centrifuged at 40,000×g. for 30 min., yielding particulate P(40) and soluble S(40) fractions. The S(40) fraction was subsequently centrifuged at 80,000×g. for 60 min., yielding particulate P(80) and soluble S(80) fractions. The particulate fractions [P(40) and P(80)] were suspended in 25 mM potassium phosphate buffer, pH 7.0, containing 5 mM MgCl2 and homogenized at 4° C.\n[…] The reaction mixtures contained in 1.0 ml: 150 mM potassium phosphate buffer, pH 7.0 containing 5 mM MgCl2, 0.6 ml; […] NADH, and cellular fraction.\nReaction mixtures were contained in 10 ml vials at 4° C. Vials were sealed with rubber caps. The gaseous phase in the vials was removed using vacuum and then was replaced with a gas mixture of methane or propylene and oxygen at a 1:1, v/v ratio. Oxidation of other gaseous n-alkanes and n-alkenes was examined as described above. For liquid substrates, 10 μl of substrate was used directly.\nThe products of epoxidation of n-alkenes and hydroxylation of n-alkanes were assayed by flame ionization gas chromatography using a stainless steel column (12'×1/8\") packed with 10% Carbowax 20 M on 80/100 Chromosorb W and Porapak Q column. The column temperature was maintained isothermally at 120° C. The carrier gas flow rate was 30 ml/min. of helium. The various products were identified by retention time comparisons and co-chromatography with authentic standards.\nSpecific activities were expressed as μ moles of products formed per hour per mg. protein. Concentrations of protein in various fractions were determined by the method of Lowry et al., J. Biol. Chem. 193: 265-275 (1951)."}, "[2]": {"tested_on": "Methylobacterium organophilum (CRL 26, NRRL B-11,222)", "assay": "Epoxidation/hydroxylation by washed cell suspensions", "assay_type": "cell-based", "settings": "Propylene + 5 mM stimulator compound", "description": "(§1) The pH of the nutrient medium was adjusted to 7.0 by the addition of acid or base and 50 ml aliquots of the nutrient medium was charged into a plurality of 300 ml shake flasks. The shake flasks were inoculated with an inoculating loop of cells from an agar plate containing homogeneous colonies of the microorganisms on the plate (the purity of the isolates were confirmed by microscopic examination). The isolates had been maintained on agar plates under an atmosphere of methane and air having a 1:1 v/v gas ratio which had been transferred every two weeks. The gaseous phase of the inoculated flasks was then replaced with a gas mixture comprised of methane and air having a ratio of 1:1 on a v/v basis. The inoculated flasks were sealed air tight and were incubated on a rotary shaker of orbital radius 2.5 cm at 250 rpm and at 30° C. for two days until the turbidity in the medium had developed.\n(§2) The cells were harvested by centrifugation at 10,000 ×g at 4° C. for 30 minutes. The cell pellet was washed twice with a 0.15 M phosphate buffer at a pH of 7.0 (containing 0.002 M MgCl2). The washed cells were then suspended in a 0.15 M phosphate buffer at pH 7.0.\n(§3) A 0.5 ml aliquot of each washed cell suspension (2 mg cells) was put into 10 ml vials at 4° C. which were sealed with a rubber cap. The gaseous phase of the vials was removed with vacuum and then was replaced with a gas mixture of alkene and oxygen at a 1:1 v/v ratio. It was then incubated at 30° C. on a rotary shaker at 300 rpm. Samples of product (3 μl) were withdrawn periodically with a microsyringe and the products were analyzed by gas chromatography (ionization flame detector column).\n(§4) Several experiments were carried out using a plurality of compounds capable of generating the necessary reducing power (NADH2 or NADPH2) required for the epoxidation of alkenes or dienes. These experiments were carried out using cell suspensions of methane grown methylotrophs using the procedure as described in Example 1 except that a stimulator compound was added to the reaction medium."}, "[3]": {"tested_on": "Methylococcus capsulatus (CRL M1, NRRL B-11,219)", "assay": "Oxidation/epoxidation by washed cell suspensions", "assay_type": "cell-based", "settings": "methane-grown washed cells"}, "[4]": {"tested_on": "Methylosinus trichosporium OB3b (NRRL B-11,196)", "assay": "Methane hydroxylation and alkene epoxidation by washed cell suspensions", "assay_type": "cell-based", "settings": "methane-grown washed cells, 30° C.", "description": "as §1, with “The shake flasks were inoculated with an inoculating loop of cells from an agar plate containing homogeneous colonies of the microorganisms on the plate (the purity of the isolates were confirmed by microscopic examination).” left out\nas §2\n[…] The gaseous phase of the vials was removed with vacuum and then was replaced with a gas mixture of alkene and oxygen at a 1:1 v/v ratio. It was then incubated at 30° C. on a rotary shaker at 300 rpm. Samples of product (3 μl) were withdrawn periodically with a microsyringe and the products were analyzed by gas chromatography (ionization flame detector column)."}, "[5]": {"tested_on": "Methylosinus sporium 5 (NRRL B-11,197)", "assay": "Methane hydroxylation and alkene epoxidation by washed cell suspensions", "assay_type": "cell-based", "settings": "methane-grown washed cells, 30° C.", "description": "as §1, with “The shake flasks were inoculated with an inoculating loop of cells from an agar plate containing homogeneous colonies of the microorganisms on the plate (the purity of the isolates were confirmed by microscopic examination).” left out\nas §2\nA 0.5 ml aliquot of each washed cell suspension (2 mg cells) was put into 10 ml vials at 4° C. which were sealed with a rubber cap. […] It was then incubated at 30° C. on a rotary shaker at 300 rpm. Samples of product (3 μl) were withdrawn periodically with a microsyringe and the products were analyzed by gas chromatography (ionization flame detector column)."}, "[6]": {"tested_on": "Methylococcus capsulatus strain MC", "assay": "Stimulation of propylene epoxidation in cell suspensions", "assay_type": "cell-based", "settings": "Propylene + 5 mM stimulator compound", "description": "as §1, §2, §3, §4"}}}
{"compound": "NC(N)=S", "note": "[Thiourea, reference compound]", "values": [{"measurement": "% Inhibition, Propylene-Epoxidizing Activity", "setting": "[1]", "result": 98, "unit": "%"}, {"measurement": "% Inhibition, Methane-Hydroxylating Activity", "setting": "[1]", "result": 98, "unit": "%"}]}
{"compound": "CC", "note": "[Ethane]", "values": [{"measurement": "Rate of Product Formation (substrate to 1,2-epoxide or alcohol)", "setting": "[1]", "result": "3.2 μmoles/hr/mg of protein"}]}
{"compound": "O=S(=O)([O-])[O-].[Cu+2]", "note": "[Cupric Sulfate]", "values": [{"measurement": "Methane-Oxidizing Activity in presence of metal", "setting": "[1]", "result": 7.1, "unit": "μmoles/hr/mg protein"}, {"measurement": "Propylene-Oxidizing Activity in presence of metal", "setting": "[1]", "result": 9.0, "unit": "μmoles/hr/mg protein"}]}
{"compound": "COC", "note": "[Dimethylether]", "values": [{"measurement": "Rate of Product Formation (Propylene Oxide)", "setting": "[2]", "result": 50, "unit": "nmoles/hr/mg protein"}]}
{"compound": "c1ccc(-c2ccccn2)nc1", "note": "[α,α-Bipyridyl, reference compound]", "values": [{"measurement": "% Inhibition, Propylene-Epoxidizing Activity", "setting": "[1]", "result": 98, "unit": "%"}, {"measurement": "% Inhibition, Methane-Hydroxylating Activity", "setting": "[1]", "result": 99, "unit": "%"}]}
{"compound": "[Cl][Cu]", "note": "[Cuprous Chloride]", "values": [{"measurement": "Methane-Oxidizing Activity in presence of metal", "setting": "[1]", "result": 7.2, "unit": "μmoles/hr/mg protein"}, {"measurement": "Propylene-Oxidizing Activity in presence of metal", "setting": "[1]", "result": 9.2, "unit": "μmoles/hr/mg protein"}]}
{"compound": "Ferrous Sulfate", "values": [{"measurement": "Methane-Oxidizing Activity in presence of metal", "setting": "[1]", "result": 4.8, "unit": "μmoles/hr/mg protein"}, {"measurement": "Propylene-Oxidizing Activity in presence of metal", "setting": "[1]", "result": 5.9, "unit": "μmoles/hr/mg protein"}]}
{"compound": "CC(C)(C)C", "note": "[2,2-dimethylpropane]", "values": [{"measurement": "Reaction Rate, 2,2-dimethylpropane to 2,2-dimethylpropanol", "setting": "[3]", "result": 0.085, "unit": "μmoles/hr/mg biomass"}]}
{"compound": "C=CCCCC", "note": "[Hexene-1]", "values": [{"measurement": "Conversion rate, hexene-1 to 1,2-epoxyhexane", "setting": "[4]", "result": 0, "unit": "μmole/hr/mg protein"}, {"measurement": "Conversion rate, hexene-1 to 1,2-epoxyhexane", "setting": "[4]; listed as hexene-1", "result": "did not produce any detectable epoxide"}, {"measurement": "Conversion rate, hexene-1 to 1,2-epoxyhexane", "setting": "[5]", "result": 0, "unit": "μmole/hr/mg protein"}, {"measurement": "Conversion rate, hexene-1 to 1,2-epoxyhexane", "setting": "[5]; listed as hexene-1", "result": "did not produce any detectable epoxide"}]}
{"compound": "c1cnc2c(c1)ccc1cccnc12", "note": "[1,10-phenanthroline, reference compound]", "values": [{"measurement": "% Inhibition, Propylene-Epoxidizing Activity", "setting": "[1]", "result": 93, "unit": "%"}, {"measurement": "% Inhibition, Methane-Hydroxylating Activity", "setting": "[1]", "result": 90, "unit": "%"}]}
{"compound": "C=CC=C", "note": "[Butadiene]", "values": [{"measurement": "Conversion rate, butadiene to 1,2-epoxybutene", "setting": "[4]", "result": 2.6, "unit": "μmole/hr/mg protein"}, {"measurement": "Conversion rate, butadiene to 1,2-epoxybutene", "setting": "[5]", "result": 1.5, "unit": "μmole/hr/mg protein"}, {"measurement": "Rate of Product Formation (substrate to 1,2-epoxide or alcohol)", "setting": "[1]", "result": "0.63 μmoles/hr/mg of protein"}]}
{"compound": "CC=O", "note": "[Acetaldehyde]", "values": [{"measurement": "Rate of Product Formation (Propylene Oxide)", "setting": "[2]", "result": 13, "unit": "nmoles/hr/mg protein"}, {"measurement": "Rate of Product Formation (Propylene Oxide)", "setting": "[6]", "result": 154, "unit": "nmoles/hr/mg protein"}]}
{"compound": "Oc1cccc2cccnc12", "note": "[8-Hydroxyquinoline, reference compound]", "values": [{"measurement": "% Inhibition, Propylene-Epoxidizing Activity", "setting": "[1]", "result": 75, "unit": "%"}, {"measurement": "% Inhibition, Methane-Hydroxylating Activity", "setting": "[1]", "result": 80, "unit": "%"}]}
{"compound": "C=CCC", "note": "[Butene-1]", "values": [{"measurement": "Conversion rate, butene-1 to 1,2-epoxybutane", "setting": "[4]", "result": 0.45, "unit": "μmole/hr/mg protein"}, {"measurement": "Conversion rate, butene-1 to 1,2-epoxybutane", "setting": "[5]", "result": 0.8, "unit": "μmole/hr/mg protein"}, {"measurement": "Rate of Product Formation (substrate to 1,2-epoxide or alcohol)", "setting": "[1]", "result": "2.18 μmoles/hr/mg of protein"}]}
{"compound": "NNC(N)=S", "note": "[Thiosemicarbazide, reference compound]", "values": [{"measurement": "% Inhibition, Propylene-Epoxidizing Activity", "setting": "[1]", "result": 97, "unit": "%"}, {"measurement": "% Inhibition, Methane-Hydroxylating Activity", "setting": "[1]", "result": 100, "unit": "%"}]}
{"compound": "COC(C)=O", "note": "[Methyl Acetate]", "values": [{"measurement": "Rate of Product Formation (Propylene Oxide)", "setting": "[2]", "result": 5.0, "unit": "nmoles/hr/mg protein"}, {"measurement": "Rate of Product Formation (Propylene Oxide)", "setting": "[6]", "result": 21, "unit": "nmoles/hr/mg protein"}]}
{"compound": "CC(C)C", "note": "[Isobutane]", "values": [{"measurement": "Reaction Rate, isobutane to isobutyraldehyde", "setting": "[3]", "result": 0.072, "unit": "μmoles/hr/mg biomass"}, {"measurement": "Reaction Rate, isobutane to tertiary butanol", "setting": "[3]", "result": 0.051, "unit": "μmoles/hr/mg biomass"}]}
{"compound": "C=CC(=C)C", "note": "[Isoprene]", "values": [{"measurement": "Reaction Rate, isoprene to 1,2-epoxyisoprene", "setting": "[3]", "result": 0.064, "unit": "μmoles/hr/mg biomass"}]}
{"compound": "[Cl][Fe]([Cl])[Cl]", "note": "[Ferric Chloride]", "values": [{"measurement": "Methane-Oxidizing Activity in presence of metal", "setting": "[1]", "result": 4.8, "unit": "μmoles/hr/mg protein"}, {"measurement": "Propylene-Oxidizing Activity in presence of metal", "setting": "[1]", "result": 5.8, "unit": "μmoles/hr/mg protein"}]}
{"compound": "C=CCCC", "note": "[Pentane-1, pentene-1]", "values": [{"measurement": "Conversion rate, Pentane-1 to 1,2-epoxypentane", "setting": "[4]", "result": 0, "unit": "μmole/hr/mg protein"}, {"measurement": "Conversion rate, pentene-1 to 1,2-epoxypentane", "setting": "[4]", "result": "did not produce any detectable epoxide"}, {"measurement": "Conversion rate, Pentane-1 to 1,2-epoxypentane", "setting": "[5]", "result": 0, "unit": "μmole/hr/mg protein"}, {"measurement": "Conversion rate, pentene-1 to 1,2-epoxypentane", "setting": "[5]", "result": "did not produce any detectable epoxide"}, {"measurement": "Rate of Product Formation (substrate to 1,2-epoxide or alcohol)", "setting": "[1]", "result": "0 μmoles/hr/mg of protein"}]}
